How the values were obtained:
[1] = molecular target: Serine/threonine-protein kinase Chk2 (Homo sapiens) (UniProt O96017); test: Inhibition of human full length CHK2 expressed in baculovirus assessed as substrate phosphorylation using fluorescence-labelled peptides as substrate at 420 uM after 90 mins by microfluidic peptide phosphorylation assay
[2] = molecular target: Serine/threonine-protein kinase pim-1 (Homo sapiens) (UniProt P11309); test: Inhibition of human full length PIM1 expressed in baculovirus assessed as substrate phosphorylation using fluorescence-labelled peptides as substrate at 0.2 uM after 90 mins by microfluidic peptide phosphorylation assay
[3] = molecular target: T1, cGMP-dependent protein kinase 1 (Homo sapiens) (UniProt Q13976); details: 0.1 uM
T1 sequence (whole entry): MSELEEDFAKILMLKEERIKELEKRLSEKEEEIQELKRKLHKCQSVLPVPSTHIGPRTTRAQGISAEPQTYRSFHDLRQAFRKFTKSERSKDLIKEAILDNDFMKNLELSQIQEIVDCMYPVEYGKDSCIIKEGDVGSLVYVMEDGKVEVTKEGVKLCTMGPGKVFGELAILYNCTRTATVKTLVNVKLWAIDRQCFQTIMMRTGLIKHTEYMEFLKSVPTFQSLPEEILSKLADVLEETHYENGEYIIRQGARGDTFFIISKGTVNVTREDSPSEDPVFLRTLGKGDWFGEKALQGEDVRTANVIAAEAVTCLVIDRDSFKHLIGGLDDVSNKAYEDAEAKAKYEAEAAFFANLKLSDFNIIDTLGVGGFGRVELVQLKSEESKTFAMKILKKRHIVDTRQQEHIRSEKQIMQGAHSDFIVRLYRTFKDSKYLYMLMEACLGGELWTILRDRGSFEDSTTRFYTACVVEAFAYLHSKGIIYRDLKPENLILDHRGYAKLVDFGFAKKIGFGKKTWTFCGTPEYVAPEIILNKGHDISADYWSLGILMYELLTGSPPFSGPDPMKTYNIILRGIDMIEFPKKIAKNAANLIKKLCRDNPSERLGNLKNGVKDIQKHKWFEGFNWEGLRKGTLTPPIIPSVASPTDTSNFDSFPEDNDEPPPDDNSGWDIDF
Description: Inhibition of human full length PKG-1a expressed in baculovirus assessed as substrate phosphorylation using fluorescence-labelled peptides as substrate at 0.1 uM after 90 mins by microfluidic peptide phosphorylation assay

[4] = molecular target: Tyrosine-protein kinase Fyn (Homo sapiens) (UniProt P06241); details: 0.1 uM
Description: Inhibition of human full length FYN expressed in baculovirus assessed as substrate phosphorylation using fluorescence-labelled peptides as substrate at 0.1 uM after 90 mins by microfluidic peptide phosphorylation assay

[5] = molecular target: T2, Serine/threonine-protein kinase D2 (Homo sapiens) (UniProt Q9BZL6); test: Inhibition of human full length PKD2 expressed in baculovirus assessed as substrate phosphorylation using fluorescence-labelled peptides as substrate at 9 uM after 90 mins by microfluidic peptide phosphorylation assay
T2 sequence (whole entry): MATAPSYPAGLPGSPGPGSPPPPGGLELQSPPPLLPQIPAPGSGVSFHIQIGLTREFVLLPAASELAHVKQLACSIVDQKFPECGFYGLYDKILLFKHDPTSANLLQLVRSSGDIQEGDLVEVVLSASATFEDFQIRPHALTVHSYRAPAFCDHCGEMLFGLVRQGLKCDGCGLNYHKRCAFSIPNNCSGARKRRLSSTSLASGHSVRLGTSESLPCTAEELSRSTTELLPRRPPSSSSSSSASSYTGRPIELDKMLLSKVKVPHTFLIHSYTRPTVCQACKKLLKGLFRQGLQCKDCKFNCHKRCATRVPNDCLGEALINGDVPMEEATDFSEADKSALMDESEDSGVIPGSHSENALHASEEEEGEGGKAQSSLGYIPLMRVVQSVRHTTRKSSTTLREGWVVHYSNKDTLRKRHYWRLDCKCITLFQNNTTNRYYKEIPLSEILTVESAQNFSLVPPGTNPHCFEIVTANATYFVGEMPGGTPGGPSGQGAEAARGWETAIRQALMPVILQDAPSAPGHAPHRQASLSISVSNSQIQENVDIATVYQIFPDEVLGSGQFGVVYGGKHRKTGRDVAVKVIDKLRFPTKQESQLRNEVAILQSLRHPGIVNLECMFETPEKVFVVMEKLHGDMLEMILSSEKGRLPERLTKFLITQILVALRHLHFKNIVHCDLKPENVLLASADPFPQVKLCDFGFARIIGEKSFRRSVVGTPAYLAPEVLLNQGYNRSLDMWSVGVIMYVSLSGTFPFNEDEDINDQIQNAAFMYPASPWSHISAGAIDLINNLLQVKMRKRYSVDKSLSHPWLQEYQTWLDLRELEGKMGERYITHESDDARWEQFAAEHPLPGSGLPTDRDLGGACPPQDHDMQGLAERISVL

[6] = molecular target: Protein kinase C theta type (Homo sapiens) (UniProt Q04759); test: Inhibition of human truncated PKC theta expressed in baculovirus assessed as substrate phosphorylation using fluorescence-labelled peptides as substrate at 9 uM after 90 mins by microfluidic peptide phosphorylation assay
[7] = molecular target: Receptor-type tyrosine-protein kinase FLT3 (Homo sapiens) (UniProt P36888); test: Inhibition of human FLT3 catalytic domain expressed in baculovirus assessed as substrate phosphorylation using fluorescence-labelled peptides as substrate at 9 uM after 90 mins by microfluidic peptide phosphorylation assay
[8] = molecular target: T3, Serine/threonine-protein kinase 3 (Homo sapiens) (UniProt Q13188); test: Inhibition of human full length MST2 expressed in baculovirus assessed as substrate phosphorylation using fluorescence-labelled peptides as substrate at 95 uM after 90 mins by microfluidic peptide phosphorylation assay
T3 sequence (whole entry): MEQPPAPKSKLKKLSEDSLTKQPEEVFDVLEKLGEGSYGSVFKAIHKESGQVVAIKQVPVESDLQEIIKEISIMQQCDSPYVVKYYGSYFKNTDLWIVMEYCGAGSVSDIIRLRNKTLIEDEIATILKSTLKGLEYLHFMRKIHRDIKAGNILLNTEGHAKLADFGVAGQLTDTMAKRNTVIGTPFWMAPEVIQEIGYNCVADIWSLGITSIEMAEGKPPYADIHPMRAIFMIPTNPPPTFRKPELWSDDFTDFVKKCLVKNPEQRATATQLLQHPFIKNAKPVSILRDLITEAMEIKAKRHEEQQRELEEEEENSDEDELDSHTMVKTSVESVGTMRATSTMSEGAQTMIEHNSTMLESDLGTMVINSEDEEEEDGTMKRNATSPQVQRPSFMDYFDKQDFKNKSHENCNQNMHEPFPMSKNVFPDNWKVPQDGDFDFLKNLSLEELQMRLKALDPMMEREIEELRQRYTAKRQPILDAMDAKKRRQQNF

[9] = molecular target: RAF proto-oncogene serine/threonine-protein kinase (Homo sapiens) (UniProt P04049); test: Inhibition of human truncated c-Raf expressed in baculovirus assessed as substrate phosphorylation using fluorescence-labelled peptides as substrate at 1000 uM after 90 mins by microfluidic peptide phosphorylation assay
[10] = molecular target: Calcium/calmodulin-dependent protein kinase type II subunit gamma (Homo sapiens) (UniProt Q13555); test: Inhibition of human CAMK2 gamma catalytic domain expressed in baculovirus assessed as substrate phosphorylation using fluorescence-labelled peptides as substrate at 2 uM after 90 mins by microfluidic peptide phosphorylation assay
[11] = molecular target: Tyrosine-protein kinase Fer (Homo sapiens) (UniProt P16591); test: Inhibition of human FER catalytic domain expressed in baculovirus assessed as substrate phosphorylation using fluorescence-labelled peptides as substrate at 2 uM after 90 mins by microfluidic peptide phosphorylation assay
Sequence of Tyrosine-protein kinase Fer (Homo sapiens) (P16591 whole entry, looked up, the tested form may be a part): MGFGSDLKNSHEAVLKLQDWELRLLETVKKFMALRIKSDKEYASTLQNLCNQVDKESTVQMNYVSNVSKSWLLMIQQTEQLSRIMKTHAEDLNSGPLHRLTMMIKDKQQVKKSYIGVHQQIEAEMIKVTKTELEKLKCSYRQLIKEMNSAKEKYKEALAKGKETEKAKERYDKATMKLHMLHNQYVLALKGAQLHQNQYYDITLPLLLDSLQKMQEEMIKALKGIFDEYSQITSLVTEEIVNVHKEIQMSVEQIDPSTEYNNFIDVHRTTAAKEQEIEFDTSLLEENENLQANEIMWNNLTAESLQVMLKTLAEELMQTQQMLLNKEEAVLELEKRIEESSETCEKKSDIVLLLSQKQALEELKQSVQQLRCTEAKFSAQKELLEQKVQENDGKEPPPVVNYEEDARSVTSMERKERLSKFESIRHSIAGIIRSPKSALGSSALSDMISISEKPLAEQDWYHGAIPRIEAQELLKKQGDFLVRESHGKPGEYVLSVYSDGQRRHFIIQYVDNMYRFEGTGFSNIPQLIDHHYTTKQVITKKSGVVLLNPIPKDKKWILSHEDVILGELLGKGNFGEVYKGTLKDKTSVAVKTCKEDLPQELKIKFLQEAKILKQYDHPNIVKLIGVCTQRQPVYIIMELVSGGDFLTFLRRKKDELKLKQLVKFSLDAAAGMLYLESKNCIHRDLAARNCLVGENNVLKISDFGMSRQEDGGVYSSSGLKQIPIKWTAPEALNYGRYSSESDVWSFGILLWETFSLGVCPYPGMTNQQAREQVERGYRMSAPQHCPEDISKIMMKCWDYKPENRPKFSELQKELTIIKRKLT

Sequence of Calcium/calmodulin-dependent protein kinase type II subunit gamma (Homo sapiens) (Q13555 whole entry, the tested form may be a part): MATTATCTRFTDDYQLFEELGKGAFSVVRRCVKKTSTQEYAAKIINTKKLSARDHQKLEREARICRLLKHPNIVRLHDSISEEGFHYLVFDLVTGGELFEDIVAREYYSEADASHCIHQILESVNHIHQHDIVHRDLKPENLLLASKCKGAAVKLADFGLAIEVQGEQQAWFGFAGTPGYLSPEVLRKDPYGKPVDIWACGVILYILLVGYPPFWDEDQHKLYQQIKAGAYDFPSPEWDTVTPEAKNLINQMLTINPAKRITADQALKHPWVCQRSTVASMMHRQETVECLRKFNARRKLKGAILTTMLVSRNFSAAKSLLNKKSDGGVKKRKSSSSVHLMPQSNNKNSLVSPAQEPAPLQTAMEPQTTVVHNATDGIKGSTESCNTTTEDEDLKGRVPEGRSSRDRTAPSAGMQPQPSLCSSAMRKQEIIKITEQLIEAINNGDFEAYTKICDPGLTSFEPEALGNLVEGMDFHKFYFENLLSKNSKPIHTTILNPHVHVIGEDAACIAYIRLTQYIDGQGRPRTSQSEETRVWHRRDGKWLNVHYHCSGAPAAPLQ
Sequence of Serine/threonine-protein kinase pim-1 (Homo sapiens) (P11309 whole entry, looked up): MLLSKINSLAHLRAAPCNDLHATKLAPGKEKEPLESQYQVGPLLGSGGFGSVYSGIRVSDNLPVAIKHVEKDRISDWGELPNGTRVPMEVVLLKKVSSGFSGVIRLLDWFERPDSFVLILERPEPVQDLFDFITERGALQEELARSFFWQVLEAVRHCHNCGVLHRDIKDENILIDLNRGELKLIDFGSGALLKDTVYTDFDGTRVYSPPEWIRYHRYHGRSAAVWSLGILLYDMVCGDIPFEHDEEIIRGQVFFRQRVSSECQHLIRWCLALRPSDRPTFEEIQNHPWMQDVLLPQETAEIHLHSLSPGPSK
Sequence of Protein kinase C theta type (Homo sapiens) (Q04759 whole entry, looked up, the tested form may be a part): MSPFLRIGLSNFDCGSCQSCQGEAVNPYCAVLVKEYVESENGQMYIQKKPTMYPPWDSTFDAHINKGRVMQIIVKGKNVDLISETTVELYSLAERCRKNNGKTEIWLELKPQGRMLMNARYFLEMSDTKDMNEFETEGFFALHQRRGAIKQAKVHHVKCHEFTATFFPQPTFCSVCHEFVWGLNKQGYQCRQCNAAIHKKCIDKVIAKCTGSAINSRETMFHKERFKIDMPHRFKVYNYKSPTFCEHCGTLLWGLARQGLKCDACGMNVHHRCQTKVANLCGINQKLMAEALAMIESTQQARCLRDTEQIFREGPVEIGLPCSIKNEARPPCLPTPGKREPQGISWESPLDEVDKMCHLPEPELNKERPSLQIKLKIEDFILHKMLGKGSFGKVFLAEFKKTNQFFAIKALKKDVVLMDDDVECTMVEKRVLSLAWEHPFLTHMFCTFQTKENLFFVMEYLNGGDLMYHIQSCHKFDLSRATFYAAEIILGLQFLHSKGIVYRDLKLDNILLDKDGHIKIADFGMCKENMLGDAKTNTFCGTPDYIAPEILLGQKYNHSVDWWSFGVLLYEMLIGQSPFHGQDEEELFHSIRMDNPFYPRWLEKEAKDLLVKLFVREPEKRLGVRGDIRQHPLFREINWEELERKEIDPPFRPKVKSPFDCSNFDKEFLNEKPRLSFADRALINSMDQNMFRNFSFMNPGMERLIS
Sequence of RAF proto-oncogene serine/threonine-protein kinase (Homo sapiens) (P04049 whole entry, the tested form may be a part): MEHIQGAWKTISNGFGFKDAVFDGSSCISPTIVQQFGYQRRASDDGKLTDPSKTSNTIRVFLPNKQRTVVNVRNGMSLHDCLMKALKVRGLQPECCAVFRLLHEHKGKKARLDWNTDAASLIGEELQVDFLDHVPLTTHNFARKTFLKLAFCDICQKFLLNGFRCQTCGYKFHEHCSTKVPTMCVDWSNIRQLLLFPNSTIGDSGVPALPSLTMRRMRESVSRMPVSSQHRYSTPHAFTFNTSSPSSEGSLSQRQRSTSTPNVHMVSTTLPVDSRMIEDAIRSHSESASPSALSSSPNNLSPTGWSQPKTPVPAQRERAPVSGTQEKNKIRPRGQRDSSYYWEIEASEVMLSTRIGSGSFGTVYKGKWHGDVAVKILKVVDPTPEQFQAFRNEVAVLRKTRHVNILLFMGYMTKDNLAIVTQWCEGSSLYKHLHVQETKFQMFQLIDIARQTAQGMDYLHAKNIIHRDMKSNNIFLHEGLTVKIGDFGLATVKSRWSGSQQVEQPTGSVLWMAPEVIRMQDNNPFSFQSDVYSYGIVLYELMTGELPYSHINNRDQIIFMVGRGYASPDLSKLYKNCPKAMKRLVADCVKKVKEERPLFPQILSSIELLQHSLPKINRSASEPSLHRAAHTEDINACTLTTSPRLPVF
Sequence of Receptor-type tyrosine-protein kinase FLT3 (Homo sapiens) (P36888 whole entry, the tested form may be a part): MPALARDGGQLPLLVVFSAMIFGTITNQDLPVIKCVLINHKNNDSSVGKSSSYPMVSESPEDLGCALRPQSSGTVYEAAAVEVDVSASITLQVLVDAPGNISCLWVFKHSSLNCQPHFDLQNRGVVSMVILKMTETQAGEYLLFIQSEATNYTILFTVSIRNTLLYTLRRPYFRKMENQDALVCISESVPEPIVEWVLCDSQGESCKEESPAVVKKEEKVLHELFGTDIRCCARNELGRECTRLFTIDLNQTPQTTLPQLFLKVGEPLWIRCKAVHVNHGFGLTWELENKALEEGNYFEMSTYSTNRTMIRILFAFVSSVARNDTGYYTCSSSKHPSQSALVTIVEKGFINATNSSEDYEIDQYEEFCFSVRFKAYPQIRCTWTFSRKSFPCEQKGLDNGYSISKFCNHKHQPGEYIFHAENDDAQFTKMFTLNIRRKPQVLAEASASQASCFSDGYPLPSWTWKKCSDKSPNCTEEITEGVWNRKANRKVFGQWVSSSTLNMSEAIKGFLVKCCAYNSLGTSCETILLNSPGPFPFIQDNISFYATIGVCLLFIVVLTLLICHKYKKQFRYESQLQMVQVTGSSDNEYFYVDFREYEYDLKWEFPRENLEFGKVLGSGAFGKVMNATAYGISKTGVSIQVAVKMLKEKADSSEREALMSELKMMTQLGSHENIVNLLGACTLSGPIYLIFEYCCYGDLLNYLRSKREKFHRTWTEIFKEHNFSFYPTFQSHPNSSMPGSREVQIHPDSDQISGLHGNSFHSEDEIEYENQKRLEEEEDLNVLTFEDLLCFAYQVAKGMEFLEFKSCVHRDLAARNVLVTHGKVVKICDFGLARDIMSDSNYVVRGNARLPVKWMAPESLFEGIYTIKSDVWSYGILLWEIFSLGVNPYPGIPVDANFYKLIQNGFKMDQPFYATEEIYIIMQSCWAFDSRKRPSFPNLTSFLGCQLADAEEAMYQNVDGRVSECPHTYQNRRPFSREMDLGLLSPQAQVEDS
Sequence of Tyrosine-protein kinase Fyn (Homo sapiens) (P06241 2-537 limits assumed): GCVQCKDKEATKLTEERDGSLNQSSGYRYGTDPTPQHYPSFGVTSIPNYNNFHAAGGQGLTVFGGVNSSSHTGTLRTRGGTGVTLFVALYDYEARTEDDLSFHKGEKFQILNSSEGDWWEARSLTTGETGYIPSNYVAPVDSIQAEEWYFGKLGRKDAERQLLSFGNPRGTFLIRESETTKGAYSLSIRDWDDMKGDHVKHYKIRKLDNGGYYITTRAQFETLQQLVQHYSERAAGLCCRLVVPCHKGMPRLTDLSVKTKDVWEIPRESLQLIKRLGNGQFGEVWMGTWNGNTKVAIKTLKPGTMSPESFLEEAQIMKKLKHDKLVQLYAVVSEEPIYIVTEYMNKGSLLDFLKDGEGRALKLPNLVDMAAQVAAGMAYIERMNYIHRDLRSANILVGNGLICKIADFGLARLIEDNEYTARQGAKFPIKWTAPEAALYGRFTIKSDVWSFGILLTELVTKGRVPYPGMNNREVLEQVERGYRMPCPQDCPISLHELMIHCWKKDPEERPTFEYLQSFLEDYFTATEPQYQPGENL

In the case of `c1nc(N2CCOCC2)c2nc[nH]c2n1`, the inhibition [1] is reported as 85%.

Work on `Clc1ccc(C2(c3ccc(-c4ncnc5[nH]cnc45)cc3)CCNCC2)cc1` yielded an inhibition [2] of 0%.

`C[C@H](CN(C)C)Oc1nc(Nc2cc3cccc(Cl)c3cn2)cnc1C#N` gave an inhibition [3] of 0% and an inhibition [4] of 0%.

With `NCC1CN(c2ncnc3[nH]c4cnccc4c23)CCO1` (stereo unspecified) the inhibition [5] was 68%, the inhibition [6] was 52.5% and the inhibition [7] was 89.5%.

In the case of `NCCc1ccc(-c2ncnc3[nH]cnc23)cc1`, the inhibition [8] is reported as 86.5%.

`c1cnc2[nH]ccc2c1` was tested, and the inhibition [9] was 20%.

In the case of `NC1CCN(c2ncnc3[nH]ccc23)CC1`, the inhibition [10] is reported as 0% and the inhibition [11] is reported as 13.5%.

From ChEMBL document CHEMBL3132769, “Fragment growing to retain or alter the selectivity of anchored kinase hinge-binding fragments” (Medchemcomm, 2014)
